Among the test systems are Bacillus megaterium Bm11; Staphylococcus capitis 1; Proteus vulgaris; Pasteurella multocida; Bacillus cereus; Listeria innocua; Micrococcus luteus; Streptococcus uberis; Escherichia coli; Leuconostoc lactis; Staphylococcus aureus; Candida albicans; Serratia marcescens; Shigella dysenteriae; Klebsiella pneumoniae; Pseudomonas aeruginosa; Salmonella typhimurium; Proteus mirabilis; Vibrio vulnificus 204; Vibrio alginolyticus.

Holding throughout (assay): ≥ marks a high value that may be exact or a test limit, other limits are often not marked, values filed in µg/mL are converted to µM
In experiment [1] the test system is Candida albicans ATCC 10231.
Experiment [2] relates to Escherichia coli ATCC 25922.
The test system of experiment [3] is Yersinia pseudotuberculosis YPIII.
Experiment [4] relates to Staphylococcus aureus Cowan 1.
Experiment [5] concerns Bacillus megaterium KCTC 1096.
In experiment [6] the test system is Candida albicans KCTC 7121.
Experiment [7] deals with Fusarium oxysporum KCTC 6084.
Experiment [8] concerns Trichosporon beigelii KCTC 7251.
Experiment [9] concerns Bacillus subtilis KCTC 1918.
Experiment [10] concerns Aspergillus flavus KCTC 7375.
The test system of experiment [11] is Escherichia coli KCTC 1682.
For experiment [12], the system named is Staphylococcus aureus KCTC 1621.
Experiment [13] concerns Pseudomonas aeruginosa KCTC 1637.
The test system of experiment [14] is Staphylococcus epidermidis.
Experiment [15] concerns Streptococcus agalactiae BCRC 10787.
The subject of experiment [16] is Streptococcus agalactiae 819.
Experiment [17] has as its system Enterococcus faecalis BCRC 10066.
The subject of experiment [18] is Pseudomonas aeruginosa ATCC 19660.
Experiment [19] deals with Aeromonas hydrophila BCRC 13018.

Converted amounts (≈) assume the structure as drawn. Some results are limits rather than exact numbers.

The MIC is the least concentration at which growth counts as inhibited. Lower therefore signals greater potency. Consider `CC[C@H](C)[C@H](NC(=O)CNC(=O)[C@H](CO)NC(=O)[C@H](CC(C)C)NC(=O)[C@H](C)NC(=O)[C@H](CCCN=C(N)N)NC(=O)CNC(=O)[C@@H](NC(=O)[C@H](CC(C)C)NC(=O)[C@@H]1CCCN1C(=O)[C@H](CC(C)C)NC(=O)[C@@H](N)Cc1ccccc1)[C@@H](C)CC)C(=O)N[C@@H](CC(C)C)C(N)=O` [FLPLIGRALSGIL], for which the MIC in [1] was 10 µM (≈ 13.7 µg/mL); in the experiment on Bacillus megaterium Bm11, 5 µM (≈ 6.84 µg/mL); in experiment [2] it was greater than 40 µM; in the experiment on Staphylococcus capitis 1, 20 µM (≈ 27.4 µg/mL); in experiment [3], no less than 40 µM; in experiment [4] it was 20 µM (≈ 27.4 µg/mL).

In the case of `CC[C@H](C)[C@H](NC(=O)[C@H](CCCCN)NC(=O)[C@H](CCCCN)NC(=O)[C@H](Cc1ccccc1)NC(=O)[C@H](Cc1c[nH]c2ccccc12)NC(=O)[C@@H](N)CCCCN)C(=O)N1CCC[C@H]1C(=O)N[C@@H](CCCCN)C(=O)N[C@@H](Cc1ccccc1)C(=O)N[C@@H](CC(C)C)C(=O)N[C@@H](Cc1cnc[nH]1)C(=O)N[C@@H](CC(C)C)C(=O)N[C@@H](C)C(=O)N[C@@H](CCCCN)C(=O)N[C@@H](CCCCN)C(=O)N[C@@H](Cc1ccccc1)C(N)=O` [KWFKKIPKFLHLAKKF], the MIC was 1.56 µM (≈ 3.21 µg/mL) in experiment [5]; no less than 50 µM in [6]; no less than 100 µM in experiment [7]; no less than 50 µM in experiment [8]; 0.78 µM (≈ 1.61 µg/mL) in experiment [9]; no less than 100 µM in experiment [10]. Besides, the MIC amounted to 12.5 µM (≈ 25.7 µg/mL) in experiment [11], 3.12 µM (≈ 6.43 µg/mL) in experiment [12], 1.56 µM (≈ 3.21 µg/mL) in [13] and 3.12 µM (≈ 6.43 µg/mL) against Proteus vulgaris.

Turning to `CC[C@H](C)[C@H](NC(=O)[C@@H](NC(=O)[C@H](C)NC(=O)[C@H](C)NC(=O)[C@@H](NC(=O)[C@H](CCCCN)NC(=O)[C@H](CCCCN)NC(=O)[C@@H](NC(=O)[C@@H](NC(=O)[C@H](CC(=O)O)NC(=O)[C@H](Cc1ccccc1)NC(=O)[C@H](CC(C)C)NC(=O)CN)C(C)C)[C@@H](C)CC)C(C)C)C(C)C)C(=O)NCC(=O)NCC(=O)N[C@@H](CC(C)C)C(N)=O` [GLFDVIKKVAAVIGGL], the MIC in [14] was 15.6 µM (≈ 25 µg/mL); in the experiment on Pasteurella multocida, no less than 62.5 µM; with Bacillus cereus, 31.3 µM (≈ 50 µg/mL); against Listeria innocua, no less than 62.5 µM; with Micrococcus luteus it was 7.5 µM (≈ 12 µg/mL); in the experiment with Streptococcus uberis, 15.6 µM (≈ 25 µg/mL). In addition, the MIC is greater than 62.5 µM against Escherichia coli, 3.75 µM (≈ 6 µg/mL) against Leuconostoc lactis and 15.6 µM (≈ 25 µg/mL) against Staphylococcus aureus.

For the compound `CC[C@H](C)[C@H](NC(=O)CNC(=O)[C@H](CO)NC(=O)[C@H](CC(C)C)NC(=O)[C@@H](NC(=O)[C@H](CCCN=C(N)N)NC(=O)CNC(=O)[C@@H](NC(=O)[C@H](C)NC(=O)[C@@H]1CCCN1C(=O)[C@H](CC(C)C)NC(=O)[C@@H](N)Cc1ccccc1)[C@@H](C)CC)C(C)C)C(=O)N[C@@H](CC(C)C)C(N)=O` [FLPAIGRVLSGIL], the MIC was 10 µM (≈ 13.5 µg/mL) in experiment [1]; 5 µM (≈ 6.77 µg/mL) against Bacillus megaterium Bm11; greater than 40 µM in experiment [2]; 20 µM (≈ 27.1 µg/mL) against Staphylococcus capitis 1; no less than 40 µM in experiment [3]; no less than 40 µM in [4].

As to `CC(C)C[C@@H]1NC(=O)CNC(=O)[C@H](CO)NC(=O)[C@H](C(C)C)NC(=O)CNC(=O)[C@@H](NC(=O)[C@H](CC(C)C)NC(=O)[C@@H](NC(=O)[C@H](CCCCN)NC(=O)[C@H](CCCCN)NC(=O)CNC(=O)[C@@H](NC(=O)CNC(=O)[C@H](CC(C)C)NC(=O)[C@@H](NC(=O)[C@H](CCCCN)NC(=O)[C@H](CO)NC(=O)[C@H](CC(C)C)NC(=O)[C@H](CC(C)C)NC(=O)CN)C(C)C)C(C)C)C(C)C)CSSC[C@@H](C(=O)O)NC1=O` [GLLSKVLGVGKKVLCGVSGLC], the minimal inhibitory concentration (MIC) was 73.9 µM (≈ 150 µg/mL) with Candida albicans; no less than 98.5 µM against Serratia marcescens; 4.92 µM (≈ 9.99 µg/mL) in the experiment with Shigella dysenteriae; 1.23 µM (≈ 2.5 µg/mL) with Micrococcus luteus; 4.92 µM (≈ 9.99 µg/mL) with Klebsiella pneumoniae; 49.2 µM (≈ 99.9 µg/mL) in the experiment with Pseudomonas aeruginosa. In addition, the MIC in the experiment on Escherichia coli is 5 µM (≈ 10.1 µg/mL); against Salmonella typhimurium, 11.1 µM (≈ 22.5 µg/mL); with Staphylococcus aureus, 15 µM (≈ 30.4 µg/mL); in the experiment on Proteus mirabilis, no less than 98.5 µM.

`CC[C@H](C)[C@H](NC(=O)[C@H](C)NC(=O)[C@H](CC(=O)O)NC(=O)[C@H](Cc1c[nH]c2ccccc12)NC(=O)[C@@H](NC(=O)[C@H](CS)NC(=O)[C@H](CCC(=O)O)NC(=O)CN)[C@@H](C)CC)C(=O)N[C@@H](Cc1ccccc1)C(=O)N[C@@H](Cc1cnc[nH]1)C(=O)NCC(=O)N[C@@H](C)C(=O)N[C@@H](CCCCN)C(=O)N[C@@H](Cc1cnc[nH]1)C(=O)N[C@@H](Cc1ccccc1)C(=O)N[C@@H](CC(C)C)C(=O)N[C@@H](Cc1cnc[nH]1)C(=O)N[C@@H](CCCN=C(N)N)C(=O)N[C@@H](CC(C)C)C(=O)N[C@H](C(=O)N[C@@H](CC(N)=O)C(=O)N1CCC[C@H]1C(N)=O)C(C)C` [GECIWDAIFHGAKHFLHRLVNP]: the MIC (in [15]; in experiment [16]; with Vibrio vulnificus 204; in experiment [17]; against Vibrio alginolyticus; in experiment [18]) was 7.62 µM (≈ 19.5 µg/mL) in each case. The same compound had an MIC in experiment [19] of 7.62 µM (≈ 19.5 µg/mL).

In the case of `CC[C@H](C)[C@H](NC(=O)CNC(=O)[C@H](CCC(=O)O)NC(=O)[C@@H](NC(=O)[C@@H](NC(=O)CNC(=O)[C@H](CO)NC(=O)[C@H](C)NC(=O)[C@H](CC(C)C)NC(=O)[C@H](CC(=O)O)NC(=O)CNC(=O)[C@H](C)NC(=O)[C@H](C)NC(=O)[C@H](CCC(N)=O)NC(=O)[C@H](CCCCN)NC(=O)[C@@H](NC(=O)[C@H](CCCCN)NC(=O)[C@H](CCC(N)=O)NC(=O)[C@H](Cc1c[nH]c2ccccc12)NC(=O)[C@H](CC(C)C)NC(=O)CN)[C@@H](C)CC)[C@@H](C)CC)C(C)C)C(=O)N[C@@H](CCCCN)C(=O)N[C@@H](CO)C(N)=O` [GLWQKIKQAAGDLASGIVEGIKS], the MIC is no less than 42.2 µM in experiment [14]; no less than 42.2 µM against Pasteurella multocida; no less than 42.2 µM in the experiment on Bacillus cereus; no less than 42.2 µM with Listeria innocua; 10.5 µM (≈ 25 µg/mL) in the experiment with Micrococcus luteus; no less than 42.2 µM in the experiment with Streptococcus uberis. Also, the MIC was 21.1 µM (≈ 50 µg/mL) against Escherichia coli, no less than 42.2 µM in the experiment with Leuconostoc lactis and greater than 42.2 µM against Staphylococcus aureus.

The values above are taken from DBAASP.
